Reference: patent US12071404B2, “Aza (indole)-, benzothiophene-, and benzofuran-3-sulfonamides” (UCB Pharma GmbH, priority 2016, dated 2024)

What was measured:
[1] = target: T1, GPR17 (Homo sapiens, UniProt Q13304); assay: Calcium mobilization functional assay (GPR17 Ca2+ assay); type: cell-based; set-up: host or cells: Flp-In T-REx CHO; settings: CHO hGPR17 cells, inhibition of 50 nM MDL29,951, Calcium 5 dye, FLIPR; read-out: Ca2+ assay pIC50 (converted)
Summary of the method: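 Flp-In T-REx CHO cells stably expressing human GPR17, doxycycline-induced (1 μg/mL, 16-20 h), loaded 60 min with Calcium 5 dye. Inhibition by varying test-compound concentrations of the 50 nM MDL29,951 agonist response was read by fluorescence over time at room temperature. pIC50 came from 4-parameter logistic fitting.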

[2] = target: T1, GPR17; assay: cAMP accumulation functional assay (HTRF, Schild analysis); type: cell-based; set-up: host or cells: Flp-In T-REx CHO; settings: CHO hGPR17 cells, Schild analysis vs MDL29,951, 5 μM forskolin, read-out: cAMP assay pA2 (converted)
Summary of the method: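 CHO Flp-In T-REx cells with doxycycline-induced human GPR17 were preincubated 30 min at room temperature in HBSS-HEPES pH 7.4 with antagonist. cAMP was then measured by HTRF after 60 min. MDL29,951 pEC50 shifts gave dose ratios, and Schild analysis gave pA2.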

T1 sequence (Q13304 whole entry): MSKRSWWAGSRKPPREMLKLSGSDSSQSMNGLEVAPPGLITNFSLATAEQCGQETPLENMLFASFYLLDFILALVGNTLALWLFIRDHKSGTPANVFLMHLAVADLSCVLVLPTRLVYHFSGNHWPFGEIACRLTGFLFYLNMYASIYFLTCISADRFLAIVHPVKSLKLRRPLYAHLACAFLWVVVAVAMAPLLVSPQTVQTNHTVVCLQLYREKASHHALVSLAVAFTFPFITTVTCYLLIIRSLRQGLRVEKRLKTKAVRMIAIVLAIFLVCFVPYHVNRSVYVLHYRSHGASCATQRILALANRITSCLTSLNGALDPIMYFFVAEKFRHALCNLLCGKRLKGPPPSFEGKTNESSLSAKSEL

| SMILES | IC50 [1] | Kb [2] |
| --- | --- | --- |
| O=S(=O)(Nc1ccc(S(F)(F)(F)(F)F)cc1F)c1c[nH]c2nc(Cl)ccc12 [Compound I-295, 6-chloro-N-[2-fluoro-4-(pentafluoro-lambda-6-sulfanyl)phenyl]-1H-pyrrolo[2,3-b]pyridine-3-sulfonamide] | 3.16 to 31.6 nM | 3.16 to 31.6 nM |
| O=S(=O)(Nc1ccc(C(F)(F)F)cc1F)c1c[nH]c2nc(Cl)ccc12 [Compound I-296, 6-chloro-N-[2-fluoro-4-(trifluoromethyl)phenyl]-1H-pyrrolo[2,3-b]pyridine-3-sulfonamide] | 3.16 to 31.6 nM | 3.16 to 31.6 nM |
| O=S(=O)(Nc1ncc(C(F)(F)F)cc1F)c1c[nH]c2cc(Cl)ccc12 [Compound I-297, 6-chloro-N-[3-fluoro-5-(trifluoromethyl)pyridin-2-yl]-1H-indole-3-sulfonamide] | 3.16 to 31.6 nM | < 3.16 nM |
| O=S(=O)(Nc1cc(F)c(Cl)cc1F)c1c[nH]c2cc(OCC(F)(F)F)ccc12 [Compound I-300, N-(4-chloro-2,5-difluorophenyl)-6-(2,2,2-trifluoroethoxy)-1H-indole-3-sulfonamide] | 3.16 to 31.6 nM | 3.16 to 31.6 nM |
| O=S(=O)(Nc1cc(F)c(C(F)(F)F)cc1F)c1c[nH]c2nc(Cl)ccc12 [Compound I-303, 6-chloro-N-[2,5-difluoro-4-(trifluoromethyl)phenyl]-1H-pyrrolo[2,3-b]pyridine-3-sulfonamide] | < 3.16 nM | < 3.16 nM |
| O=S(=O)(Nc1cc(F)c(Br)cc1F)c1c[nH]c2c1ccc1cccnc12 [Compound I-305, N-(4-bromo-2,5-difluorophenyl)-1H-pyrrolo[3,2-h]quinoline-3-sulfonamide] | < 3.16 nM | < 3.16 nM |
| O=S(=O)(Nc1nc(F)c(Cl)cc1F)c1c[nH]c2nc(Cl)ccc12 [Compound I-307, 6-chloro-N-(5-chloro-3,6-difluoropyridin-2-yl)-1H-pyrrolo[2,3-b]pyridine-3-sulfonamide] | 3.16 to 31.6 nM | 3.16 to 31.6 nM |
| COc1nc(NS(=O)(=O)c2c[nH]c3c(OC)c(Cl)ccc23)c(F)cc1Cl [Compound I-309, 6-chloro-N-(5-chloro-3-fluoro-6-methoxypyridin-2-yl)-7-methoxy-1H-indole-3-sulfonamide] | < 3.16 nM | < 3.16 nM |
| COc1c(Cl)ccc2c(S(=O)(=O)Nc3nc(F)c(Cl)cc3F)c[nH]c12 [Compound I-310, 6-chloro-N-(5-chloro-3,6-difluoropyridin-2-yl)-7-methoxy-1H-indole-3-sulfonamide] | < 3.16 nM | < 3.16 nM |
| O=S(=O)(Nc1nc(F)c(Cl)cc1F)c1c[nH]c2c1ccc1cccnc12 [Compound I-316, N-(5-chloro-3,6-difluoropyridin-2-yl)-1H-pyrrolo[3,2-h]quinoline-3-sulfonamide] | 3.16 to 31.6 nM | 3.16 to 31.6 nM |
| O=S(=O)(Nc1nc(F)c(Cl)cc1F)c1c[nH]c2c3c(ccc12)CCC3 [Compound I-317, N-(5-chloro-3,6-difluoropyridin-2-yl)-1,6,7,8-tetrahydrocyclopenta[g]indole-3-sulfonamide] | 3.16 to 31.6 nM | 3.16 to 31.6 nM |
| COc1ccc2c(S(=O)(=O)Nc3cc(F)c(Cl)cc3F)c(F)[nH]c2c1 [Compound I-318, N-(4-chloro-2,5-difluorophenyl)-2-fluoro-6-methoxy-1H-indole-3-sulfonamide] | 3.16 to 31.6 nM | 3.16 to 31.6 nM |
| COc1nc(NS(=O)(=O)c2c[nH]c3c(F)c(Cl)ccc23)c(F)cc1Cl [Compound I-319, 6-chloro-N-(5-chloro-3-fluoro-6-methoxypyridin-2-yl)-7-fluoro-1H-indole-3-sulfonamide] | < 3.16 nM | < 3.16 nM |

Results, then the compound that gave them:

| IC50 [1] | Kb [2] | SMILES |
| --- | --- | --- |
| 3.16 to 31.6 nM | 3.16 to 31.6 nM | COc1cc(C#N)c(F)cc1NS(=O)(=O)c1c[nH]c2nc(Cl)ccc12 [Compound I-292, 6-chloro-N-(4-cyano-5-fluoro-2-methoxyphenyl)-1H-pyrrolo[2,3-b]pyridine-3-sulfonamide] |
| 3.16 to 31.6 nM | 3.16 to 31.6 nM | COc1ccc2c(S(=O)(=O)Nc3ccc(Br)cc3F)c[nH]c2c1 [Compound I-293, N-(4-bromo-2-fluorophenyl)-6-methoxy-1H-indole-3-sulfonamide] |
| 3.16 to 31.6 nM | 3.16 to 31.6 nM | N#Cc1ccc(NS(=O)(=O)c2c[nH]c3cc(OCC(F)(F)F)ccc23)c(F)c1 [Compound I-294, N-(4-cyano-2-fluorophenyl)-6-(2,2,2-trifluoroethoxy)-1H-indole-3-sulfonamide] |
| 3.16 to 31.6 nM | 3.16 to 31.6 nM | COc1cc(F)c(NS(=O)(=O)c2c[nH]c3cc(Cl)ccc23)cc1F [Compound I-298, 6-chloro-N-(2,5-difluoro-4-methoxyphenyl)-1H-indole-3-sulfonamide] |
| 3.16 to 31.6 nM | < 3.16 nM | O=S(=O)(Nc1ccc(C(F)(F)F)cc1F)c1c[nH]c2cc(Cl)ccc12 [Compound I-299, 6-chloro-N-[2-fluoro-4-(trifluoromethyl)phenyl]-1H-indole-3-sulfonamide] |
| 3.16 to 31.6 nM | 3.16 to 31.6 nM | O=c1[nH]c2cccc(NS(=O)(=O)c3c[nH]c4cc(Cl)ccc34)c2o1 [Compound I-301, 6-chloro-N-(2-oxo-2,3-dihydro-1,3-benzoxazol-7-yl)-1H-indole-3-sulfonamide] |
| 3.16 to 31.6 nM | 3.16 to 31.6 nM | O=S(=O)(Nc1ncc(F)cc1F)c1c[nH]c2cc(Cl)ccc12 [Compound I-302, 6-chloro-N-(3,5-difluoropyridin-2-yl)-1H-indole-3-sulfonamide] |
| < 3.16 nM | < 3.16 nM | O=S(=O)(Nc1nc(F)c(Cl)cc1F)c1c[nH]c2c1ccc1ccccc12 [Compound I-304, N-(5-chloro-3,6-difluoropyridin-2-yl)-1H-benzo[g]indole-3-sulfonamide] |
| 3.16 to 31.6 nM | < 3.16 nM | C#Cc1ccc(NS(=O)(=O)c2c[nH]c3c2ccc2cccnc23)c(F)c1 [Compound I-306, N-(4-ethynyl-2-fluorophenyl)-1H-pyrrolo[3,2-h]quinoline-3-sulfonamide] |
| < 3.16 nM | < 3.16 nM | O=S(=O)(Nc1cc(F)c(I)cc1F)c1c[nH]c2cc(Cl)ccc12 [Compound I-308, 6-chloro-N-(2,5-difluoro-4-iodophenyl)-1H-indole-3-sulfonamide] |
| 3.16 to 31.6 nM | 3.16 to 31.6 nM | N#Cc1ccc(NS(=O)(=O)c2csc3cc(Cl)ccc23)cc1 [Compound I-311, 6-chloro-N-(4-cyanophenyl)-1-benzothiophene-3-sulfonamide] |
| 3.16 to 31.6 nM | 3.16 to 31.6 nM | O=S(=O)(Nc1cc(F)c(Cl)cc1F)c1csc2cc(Cl)ccc12 [Compound I-312, 6-chloro-N-(4-chloro-2,5-difluorophenyl)-1-benzothiophene-3-sulfonamide] |
| 3.16 to 31.6 nM | 3.16 to 31.6 nM | N#CCOc1cc(F)c(NS(=O)(=O)c2csc3cc(Cl)ccc23)cc1F [Compound I-313, 6-chloro-N-[4-(cyanomethoxy)-2,5-difluorophenyl]-1-benzothiophene-3-sulfonamide] |
| 3.16 to 31.6 nM | 3.16 to 31.6 nM | COc1nc(NS(=O)(=O)c2csc3cc(Cl)ccc23)c(F)cc1Cl [Compound I-314, 6-chloro-N-(5-chloro-3-fluoro-6-methoxypyridin-2-yl)-1-benzothiophene-3-sulfonamide] |
| < 3.16 nM | < 3.16 nM | COc1nc(NS(=O)(=O)c2csc3cc(Cl)ccc23)c(F)cc1CC#N [Compound I-315, 6-chloro-N-[5-(cyanomethyl)-3-fluoro-6-methoxypyridin-2-yl]-1-benzothiophene-3-sulfonamide] |
